Data published in patent publication US20250327074A1 (SHAOXING INSTITUTE, ZHEJIANG UNIVERSITY, priority 2024, published 2025).

tested on: rare codon in EGFP reporter, HEK293T cells; experiment: LC-MS recoding efficiency of rare codons in EGFP reporter; format: cell-based; details: TCG at position 151 of EGFP; 12× tRNA; serine/glycine-free medium; 500 μM unnatural amino acid
Method: The recoding translation system and the rare codon-bearing POI were co-transfected into HEK293T cells. Then, two methods were used to calculate the ncAA recoding rate: 1) LC-MS analysis: the protein of the POI mixture, including the fraction incorporated with ncAA and the fraction with NAA at rare codons, was purified by Ni2+-NTA beads and subjected to LC-MS analysis. The ncAA recoding rate was determined by the intensity of two fractions quantified by LC-MS. 2) TCO-PEG5000 mass tag labeling analysis: this method was suitable for quantifying the TetBu recoding rate in this work. When the protein mixture was incubated with TCO-PEG5000 mass tag, the protein incorporated with TetBu would be labeled by this mass tag and migrated much slower in SDS-PAGE.
When the recoding system (TetRS/PylTyyy) is co-expressed with a target protein carrying the recoding codon in HEK293T, the recoding codon can be translated into a natural amino acid by endogenous tRNA (Dec-tRNA), or recoding into TetBu by the engineered tRNA (Rec-tRNA), producing a mixture of protein byproducts (with a single-site mutation) and the target protein containing TetBu. Based on this, two methods were established to assess sense codon recoding efficiency: a) Liquid chromatography-mass spectrometry (LC-MS) for differentiates proteins based on molecular weight differences, and b) TCO-PEG5000 macromolecular label target proteins containing TetBu, which increases their molecular weight by 5 kDa. The shift in protein bands is detected via immunoblotting (FIG. 2).
(1) Transfection: Plasmids encoding the TetBu/PylTyyy recoding system (where xxx represents different codons and yyy represents different anticodons) were co-transfected with the plasmid mCherry-T2A-EGFP^N149XXX-6×His at a 1:1 (g:g) ratio. For a 10 cm dish, the total transfection mixture contained 20 μg DNA+[…] Lipofectamine 2000+2 mL Opti-MEM.
(2) Protein expression and purification: After 6 hours, the medium was replaced with fresh DMEM containing 200 μM TetBu for 40 hours to induce protein expression. Cells were lysed in 1 mL Modified RIPA Buffer, and the supernatant was purified using Ni-NTA beads.
(3) LC-MS analysis of recoding efficiency:Using a Waters Xevo G2-XS TOF Mass Spectrometer, the recoding efficiency of rare codons (CTA, GTA, CGT, CCG, GCG, ACG, and TCG) at the EGFP149 site was evaluated.
(2) Cell transfection and protein expression purification: HEK293T cells were seeded in 10 cm culture dishes and transfected at 60-70% confluency. For each transfection, […] of plasmid carrying mCherry-T2A-EGFPY151TCG-6×His was co-transfected with one of the following recoding system plasmids: chPhe_AcFRS/12×(U6-chPheTCGA), EcTyr_OmeYRS/12×(U6-EcTyrTCGA), or EcLeu_OmeYRS/12×(U6-EcLeuTCGA). After 6 hours, the medium was replaced with serine/glycine-free DMEM/F12 containing 500 μM of the respective unnatural amino acid. Following protein expression and purification, LC-MS was used to determine TCG recoding efficiency at position 151 of EGFP. Detailed transfection and purification protocols following section 2.2.1.2, with cell culture conditions in serine-free medium as described in Example 2.

| SMILES | recoding efficiency [%] |
| --- | --- |
| N[C@@H](Cc1ccc(OS(=O)(=O)O)cc1)C(=O)O [sTyr] | 85 |
| CC(=O)NCCCC[C@H](N)C(=O)O [AcK] | 78 |
| CCC(=O)NCCCC[C@H](N)C(=O)O [Kpr] | 79 |
| CC(C)(C)OC(=O)NCCCC[C@H](N)C(=O)O [BocK, ε-N-tert-butyloxycarbonyllysine] | 82 |
| C/C=C/C(=O)NCCCC[C@H](N)C(=O)O [Kcr, ε-N-crotonyl-lysine] | 84 |
| CCCC(=O)NCCCC[C@H](N)C(=O)O [Kbu] | 74 |

tested on: EGFP F84TCG mutant; experiment: EGFP F84TCG fluorescence activation by UAA; format: cell-based; details: not given
Excerpt: Using EGFP as an example, this example describes a general method for screening recoding sites and UAA types in protein activation regulated by UAA incorporation. In the absence of UAAs, the TCG recoding system decodes the TCG codon as serine (Ser). To maximize disruption towards protein function, we screened phenylalanine (Phe), tyrosine (Tyr), and tryptophan (Trp)—amino acids with the greatest structural divergence from Ser for potential incorporation. Following identification of Ser-substituted inactivation sites, we screened UAAs capable of rescuing protein activity, yielding optimal recoding system/UAA pairs (a-b of FIG. 22). […] This strategy was successfully extended to diverse proteins including fluorescent proteins (e.g., mCherry), enzymes (e.g., luciferase, kinases, peroxidases), and translation regulators (e.g., initiation factors, post-translational modification readers).

| SMILES | concentration with detectable EGFP activation [mM] | time to fluorescence activation after UAA delivery [min] |
| --- | --- | --- |
| COc1ccc(C[C@H](N)C(=O)O)cc1 [OmeY, O-methyl-tyrosine] | 0.00001 | ≤ 1 |

same assay, conditions: TCG-recoding system decoding OmeY

| SMILES | fluorescence enhancement upon UAA addition versus no UAA [fold] |
| --- | --- |
| COc1ccc(C[C@H](N)C(=O)O)cc1 [OmeY, O-methyl-tyrosine] | > 100 |

tested on: TCG codon, mammalian cells; experiment: TCG codon recoding efficiency of all amino acids (Table 1); format: cell-based; details: TCG codon recoding of the unnatural amino acid with the aaRS and mutation of the same table line; class symbols
Excerpt: Specific details are shown in Table 1 below, where “wt” represents the wild-type aminoacyl-tRNA synthetase, “mutation sites” indicate the positions and types of mutations related to specific unnatural amino acid binding on the wild-type aminoacyl-tRNA synthetase, and “unnatural amino acid” represents the unnatural amino acid corresponding to the mutated aminoacyl-tRNA synthetase. In the unnatural amino acid encoding efficiency, “+” indicates a recoding efficiency greater than 40%, “++” greater than 60%, and “+++” greater than 80%.
Accordingly, this application compiles all amino acids reported in the literature that are recognized by orthogonal aminoacyl-tRNA synthetases in mammalian systems and evaluates their recoding efficiency using the TCG codon as an example.

| SMILES | Recoding rate (%) |
| --- | --- |
| N[C@@H](Cc1ccc2c(c1)OCO2)C(=O)O [compound 248] | + (“+” indicates a recoding efficiency greater than 40%) |
| N[C@@H](Cc1ccc(C(=O)c2ccc(C(F)(F)F)cc2)cc1)C(=O)O [compound 345] | ++ (“++” greater than 60%) |
| CC(=O)CCCSC[C@H](N)C(=O)O [compound 377] | ++ (“++” greater than 60%) |
| C=CCCCOC[C@H](N)C(=O)O [compound 409] | +++ (“+++” greater than 80%) |
| COc1ccc2c(C[C@H](N)C(=O)O)c[nH]c2c1OC [compound 296] | +++ (“+++” greater than 80%) |
| C=CCSC[C@H](N)C(=O)O [compound 280] | + (“+” indicates a recoding efficiency greater than 40%) |
| N[C@@H](CCCS)C(=O)O [compound 394] | ++ (“++” greater than 60%) |
| CCCCC=Cc1ccc(C[C@H](N)C(=O)O)cc1 [compound 315] | +++ (“+++” greater than 80%) |

same assay, conditions: TCG codon recoding of the unnatural amino acid with the aaRS and mutation of the same table line; numeric values

| SMILES | Recoding rate (%) |
| --- | --- |
| CCCCCCCSC[C@H](N)C(=O)O [compound 383] | 74 |
| N[C@@H](Cc1ccc(I)cc1)C(=O)O [compound 297] | 43 |
| C#CCCCCSC[C@H](N)C(=O)O [compound 386] | 77 |
| COc1ccc(C[C@H](N)C(=O)O)cc1 [compound 400] | 92 |
| N#Cc1cccc2c(C[C@H](N)C(=O)O)c[nH]c12 [compound 302] | 69 |
| C=CCCCC[C@H](N)C(=O)O [compound 407] | 81 |
| N[C@@H](Cc1ccc(Br)cc1)C(=O)O [compound 366] | 63 |
| CN(C)c1cccc2c(S(=O)(=O)NC[C@H](N)C(=O)O)cccc12 [compound 390] | 73 |
| COc1ccc(C[C@H](N)C(=O)O)cc1 [compound 369] | 84 |
| N[C@@H](CC(=O)OCc1ccccc1)C(=O)O [compound 266] | 75 |

tested on: FLucY255ACG/K529TCG mutant; experiment: FLuc dual caged UAA decaging luminescence assay; format: cell-based; details: dual incorporation of ONBY with TCOK/PABK
Excerpt: To established a method for orthogonal activation control of proteins, two caged UAAs are incorporated site-specifically into the active pocket or adjacent sites of target proteins through the dual rare codon recoding strategy, wherein steric hindrance leads to the protein inactivation, followed by protein activation through photochemical or chemical decaging strategies. The TCG/ACG dual recoding system decodes TCG/ACG sites as serine/threonine in the absence of UAAs. During the screening of FLuc, the K529 and Y255 site are identified with minimal background upon serine incorporation and threonine incorporation respectively, which were subsequently used for dual caged UAA incorporation. Using the FLucY255ACG/K529TCG mutant as an example, the TCG recoding system decoding ONBY, the ACG recoding system decoding TCOK/PABK, and reporter genes were co-transfected into cells, followed by luminescence assay to evaluate protein activation.

| SMILES | FLuc activity in the presence of both caged UAAs, before decaging |
| --- | --- |
| [N-]=[N+]=Nc1ccc(COC(=O)NCCCC[C@H](N)C(=O)O)cc1 [PABK] | nearly complete inactivation |
| N[C@@H](CCCCNC(=O)OC1/C=C/CCCCC1)C(=O)O (stereo partly drawn) [TCOK] | nearly complete inactivation |
| N[C@@H](Cc1ccc(OCc2ccccc2[N+](=O)[O-])cc1)C(=O)O [ONBY] | nearly complete inactivation |
